# Measured values reported in ChEMBL document CHEMBL1201862, “PubChem BioAssay data set” (2004).
# Active and inactive are the calls of the source. For most assays here, no stated cut-off is given here; in the data, actives have a measured EC50 and inactives only a lower limit.
# Tests used:
# [1] = biological target: T1, Zinc finger protein mex-5 (Caenorhabditis elegans, UniProt Q9XUB2); test: potency of MEX-5 RNA-binding blockers – biochemical, C. elegans, fluorescence polarization, dose response (AID 1960)
# T1 sequence (Q9XUB2 whole entry): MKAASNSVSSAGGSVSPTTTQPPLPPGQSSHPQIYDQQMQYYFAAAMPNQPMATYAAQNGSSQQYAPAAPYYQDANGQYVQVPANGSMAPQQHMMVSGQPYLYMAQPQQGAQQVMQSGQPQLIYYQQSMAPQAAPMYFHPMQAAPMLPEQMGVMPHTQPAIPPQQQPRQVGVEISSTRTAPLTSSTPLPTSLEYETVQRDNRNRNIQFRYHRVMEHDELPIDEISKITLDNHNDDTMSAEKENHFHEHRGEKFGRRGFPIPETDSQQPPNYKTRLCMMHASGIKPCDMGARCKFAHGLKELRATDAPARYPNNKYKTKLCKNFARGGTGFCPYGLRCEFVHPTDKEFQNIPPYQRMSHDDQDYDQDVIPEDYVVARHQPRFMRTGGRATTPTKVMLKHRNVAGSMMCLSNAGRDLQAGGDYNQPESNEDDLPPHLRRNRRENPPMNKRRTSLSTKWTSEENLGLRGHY
# [2] = biological target: T2, RNA-binding protein pos-1 (Caenorhabditis elegans, UniProt G5EF15); test: disruptors of C. elegans POS-1 RNA interaction – biochemical, fluorescence polarization, dose response (AID 1964);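 further: purified POS-1 fused to maltose binding protein made in E. coli; potency of compounds blocking POS-1 binding to fluorescent RNA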
# T2 sequence (G5EF15 whole entry): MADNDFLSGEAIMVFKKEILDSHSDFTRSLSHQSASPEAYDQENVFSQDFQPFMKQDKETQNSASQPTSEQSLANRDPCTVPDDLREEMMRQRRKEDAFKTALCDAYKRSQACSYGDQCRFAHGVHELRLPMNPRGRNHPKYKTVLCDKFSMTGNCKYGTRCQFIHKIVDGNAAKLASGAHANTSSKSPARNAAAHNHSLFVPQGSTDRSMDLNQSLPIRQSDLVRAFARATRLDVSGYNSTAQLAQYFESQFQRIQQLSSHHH
# [3] = biological target: T3, Heat shock factor protein 1 (Mus musculus, UniProt P38532); test: enhancement of HSF1-driven luciferase signal – cell-based, NIH3T3, luminescence, dose retest, confirmation (AID 435004); format: functional;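 further: stress induced by proteasome inhibitor MG132 added 30 min after compound; luciferase reporter driven by HSF1 response element in NIH3T3 cells; actives raise luminescence as potentiators of the MG132 stress response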
# T3 sequence (P38532 whole entry): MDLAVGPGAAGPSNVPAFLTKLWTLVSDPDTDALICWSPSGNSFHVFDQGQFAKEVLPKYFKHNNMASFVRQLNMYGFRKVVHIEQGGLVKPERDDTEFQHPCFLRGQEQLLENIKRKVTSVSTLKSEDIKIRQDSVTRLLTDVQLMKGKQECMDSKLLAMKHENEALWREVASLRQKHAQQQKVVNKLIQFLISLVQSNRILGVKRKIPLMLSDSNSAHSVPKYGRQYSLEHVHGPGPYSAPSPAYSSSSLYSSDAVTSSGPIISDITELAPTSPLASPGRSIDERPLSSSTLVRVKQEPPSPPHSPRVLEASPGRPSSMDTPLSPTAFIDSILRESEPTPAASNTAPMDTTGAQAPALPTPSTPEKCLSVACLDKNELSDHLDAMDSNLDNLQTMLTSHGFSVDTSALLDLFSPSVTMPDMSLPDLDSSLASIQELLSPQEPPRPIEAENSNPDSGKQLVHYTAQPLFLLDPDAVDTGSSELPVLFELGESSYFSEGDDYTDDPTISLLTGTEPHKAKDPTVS
# [4] = biological target: T4, Microphthalmia-associated transcription factor (Homo sapiens, UniProt O75030); test: reducers of TRPM1 reporter luminescence, concentration series – cell-based, SK-MEL-5, cherry-picked, set 3, MITF inhibitor project, dose response (AID 493073); format: functional;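 further: SK-MEL-5 melanoma cells with luciferase driven by the MITF target TRPM1 promoter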
# T4 sequence (O75030 whole entry): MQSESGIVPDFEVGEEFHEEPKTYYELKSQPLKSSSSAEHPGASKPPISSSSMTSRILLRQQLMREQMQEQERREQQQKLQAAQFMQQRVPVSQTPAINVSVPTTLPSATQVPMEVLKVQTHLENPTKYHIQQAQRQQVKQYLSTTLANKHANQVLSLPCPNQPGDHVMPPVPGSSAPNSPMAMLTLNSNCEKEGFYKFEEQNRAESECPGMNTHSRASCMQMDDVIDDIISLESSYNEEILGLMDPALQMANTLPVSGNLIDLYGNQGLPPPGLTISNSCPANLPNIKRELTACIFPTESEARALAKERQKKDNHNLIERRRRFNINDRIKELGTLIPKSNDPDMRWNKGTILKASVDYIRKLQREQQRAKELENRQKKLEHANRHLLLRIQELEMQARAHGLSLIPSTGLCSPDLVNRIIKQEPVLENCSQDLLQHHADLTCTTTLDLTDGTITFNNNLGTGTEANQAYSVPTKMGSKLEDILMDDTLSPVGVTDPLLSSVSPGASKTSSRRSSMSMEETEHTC
# [5] = viability of uninfected HEp-2 cells – cell-based, HTS, cytotoxicity control for RSV inhibitor project, dose response (AID 2410); format: functional; conditions: human respiratory syncytial virus
# [6] = cells; format: functional
# [7] = fluconazole-exposed Candida albicans growth modulators – fluorescence, retest, confirmation (AID 2467); format: functional, cell-based
# [8] = NIH-3T3 fibroblast cytotoxicity, dose response, cytotoxicity control, cell-based, fluorescence, Alamar Blue, secondary assay (AID 2327); format: functional;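 further: NIH-3T3 mouse fibroblasts cultured with fluconazole at 8 µg/mL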
# [9] = Trypanosoma cruzi growth suppression in host cells – NIH3T3 host cells, beta-gal luminescence, confirmation (AID 2044); format: functional, cell-based;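 further: intracellular parasites grown in NIH/3T3 mouse fibroblasts as host cells; luminescent beta-galactosidase reporter signal from transgenic T. cruzi replicating inside host cells; inhibitors lower the luminescence signal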
# [10] = NIH3T3 cell viability loss – ATP luminescence, mouse fibroblasts, counter-screen, dose response (AID 2010); format: functional, cell-based;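 further: cells exposed to compound for about 90 hours before reading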
# [11] = biological target: T5, Corticotropin-releasing factor receptor 2/Corticotropin-releasing factor-binding protein (Homo sapiens, UniProt P24387+Q13324); test: activators of CRF receptor 2 with binding protein – uHTS hits, confirmation (AID 602473); format: functional; conditions: read-out: EC50_Mean
# T5 sequence (Q13324 whole entry): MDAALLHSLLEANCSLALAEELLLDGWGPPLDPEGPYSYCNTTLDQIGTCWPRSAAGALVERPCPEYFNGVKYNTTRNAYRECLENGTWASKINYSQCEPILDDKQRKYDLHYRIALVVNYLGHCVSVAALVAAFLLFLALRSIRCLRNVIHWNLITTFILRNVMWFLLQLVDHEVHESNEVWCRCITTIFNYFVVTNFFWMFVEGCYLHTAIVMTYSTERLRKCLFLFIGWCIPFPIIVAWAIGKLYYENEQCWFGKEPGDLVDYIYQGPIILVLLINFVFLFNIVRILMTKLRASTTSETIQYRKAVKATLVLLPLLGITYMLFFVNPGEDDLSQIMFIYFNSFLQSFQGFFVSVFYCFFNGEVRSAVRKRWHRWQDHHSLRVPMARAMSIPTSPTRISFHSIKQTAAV
# T5 sequence (P24387 whole entry): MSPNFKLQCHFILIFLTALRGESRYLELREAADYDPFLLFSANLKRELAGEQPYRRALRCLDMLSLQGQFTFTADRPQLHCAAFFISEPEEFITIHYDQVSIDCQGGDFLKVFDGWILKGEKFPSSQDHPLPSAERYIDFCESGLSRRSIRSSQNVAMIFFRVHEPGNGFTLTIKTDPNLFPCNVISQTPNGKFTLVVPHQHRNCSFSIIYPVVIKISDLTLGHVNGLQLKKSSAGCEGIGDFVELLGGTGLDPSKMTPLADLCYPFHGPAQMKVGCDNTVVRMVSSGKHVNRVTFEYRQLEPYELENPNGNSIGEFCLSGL
# [12] = HIV-1 AD8 envelope cell-cell fusion blockers – cherry-pick, dose response (AID 652062); format: functional, cell-based;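 further: luciferase signal from cell-cell fusion driven by HIV-1 clade B AD8 Env; potency is for inhibitors of fusion seen as a drop in luminescence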
# [13] = biological target: Cytochrome P450 2D6 (Homo sapiens, UniProt P10635);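 further: CYP2D6 member of a cytochrome P450 panel assay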
# Cytochrome P450 2D6, sequence (P10635 whole entry): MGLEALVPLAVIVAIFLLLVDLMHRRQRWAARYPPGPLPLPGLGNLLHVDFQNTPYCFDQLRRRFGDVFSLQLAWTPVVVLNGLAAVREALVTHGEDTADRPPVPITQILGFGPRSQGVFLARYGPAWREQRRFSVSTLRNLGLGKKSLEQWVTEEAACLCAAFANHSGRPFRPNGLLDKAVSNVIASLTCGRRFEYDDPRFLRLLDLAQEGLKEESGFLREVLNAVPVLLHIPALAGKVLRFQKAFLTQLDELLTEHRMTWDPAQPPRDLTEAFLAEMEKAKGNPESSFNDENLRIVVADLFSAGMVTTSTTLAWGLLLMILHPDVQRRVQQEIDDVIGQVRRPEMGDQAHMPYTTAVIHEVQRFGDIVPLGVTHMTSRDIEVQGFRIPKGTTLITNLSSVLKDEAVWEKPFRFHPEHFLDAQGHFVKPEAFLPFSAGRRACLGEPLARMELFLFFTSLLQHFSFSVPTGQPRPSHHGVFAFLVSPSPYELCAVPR
structure (smiles),measurement,setting,value
Cc1nc2ccc(N3CCN(C)CC3)cc2nc1C,EC50,[1],> 300 µM (not active)
same,EC50,[2],> 300 µM (not active)
CC1(C)CC(=O)C2=C(C1)OC(N)=C(C#N)C2c1ccccc1OC(=O)N1CCOCC1 (configuration not stated),EC50,[1],> 300 µM (not active)
same,EC50,[2],> 300 µM (not active)
Cn1c(=O)oc2cc(S(=O)(=O)N3CCCCC3)ccc21,EC50,[3],> 260 µM (inactive)
CCCCN1CCc2c1nc1ccc(Br)cc1c2N,AC50,[4],12.2 µM (active)
same,CC50,[5],14.1 µM (active)
O=C(OCc1nc2ccccc2s1)c1ccc(Br)o1,IC50,[6],11.9 µM (active)
O=C(/C=C/c1ccc([N+](=O)[O-])s1)N1CCCCC1,AC50,[4],4.16 µM (active)
CSc1nn(-c2ccc(C(=O)OCC(=O)NC(=O)NC(C)C)cc2)c(=S)s1,IC50,[6],13.2 µM (active)
COC(=O)c1c(C(=O)OC)c2n(c1C)Cc1ccccc1C2,EC50,[1],43.7 µM (active)
same,EC50,[2],> 300 µM (not active)
Clc1ccccc1-c1nc2ccccc2c2nc3ccccc3n12,EC50,[7],12.2 µM (active)
same,EC50,[8],> 150 µM (inactive)
CC(=O)NC(=O)NC1OC(=O)C(Cl)=C1Cl (configuration not stated),EC50,[3],> 260 µM (inconclusive)
Cc1cccc(NC(=O)CCSc2nnc(Cc3ccccc3)o2)c1,IC50,[6],39.8 µM (active)
COc1cccc2s/c(=N/C(=O)CS(=O)(=O)c3ccc(Cl)cc3)n(C)c12,EC50,[9],0.34 µM (active)
same,EC50,[7],2.16 µM (active)
same,EC50,[10],> 60 µM (not active)
same,EC50,[8],> 160 µM (inactive)
CC(=O)c1cc(NC(=O)c2ccc(Cl)cc2)c(=O)oc1/C=C/N(C)C,EC50,[11],5 µM (active)
same,EC50,[1],4.07 µM (active)
same,EC50,[2],57.3 µM (active)
O=C(N/N=C\C=C\c1ccco1)c1cncc(Br)c1,IC50,[6],> 50 µM (active)
Cc1ccsc1/C=N/NC(=O)c1ccncc1,IC50,[6],3.02 µM (active)
Cc1cccn2c(=O)c3cc(C(=O)NCC4CCCO4)c(=N)n(CCc4ccccc4)c3nc12 (configuration not stated),EC50,[1],7.9 µM (inconclusive)
same,EC50,[2],102 µM (active)
CCOC(=O)c1sc(C)c2c1NC(C)(c1cccc3ccccc13)NC2=O (configuration not stated),EC50,[3],> 260 µM (inactive)
Cn1c(CN2CCCCC2)nc2cc(NC(=O)c3ccc(Cl)cc3)ccc21,AC50,[12],28.7 µM (active)
same,AC50,[13],0.0316 µM (inconclusive)
Cc1cccc(N2C(=O)NC(=O)/C(=C/Nc3ccccc3N)C2=O)c1,EC50,[7],> 38 µM (not active)
same,EC50,[8],> 160 µM (inactive)
O=C(CCCSc1nc2ccccc2[nH]1)N1CCN(c2ccc([N+](=O)[O-])cc2)CC1,EC50,[3],> 260 µM (inactive)
CCCCOC(=O)CSC1=C(C#N)C(c2ccccc2OCC)C(C#N)C(=O)N1 (configuration not stated),EC50,[1],> 300 µM (inconclusive)
same,EC50,[2],> 300 µM (not active)
O=C(Nc1nc2ccccc2[nH]1)c1ccc(OC(F)F)cc1,EC50,[3],> 260 µM (inconclusive)
Cc1ccc(C)c(S(=O)(=O)Nc2ccccc2C(=O)Nc2cc(C)on2)c1,EC50,[7],1.28 µM (active)
same,EC50,[8],> 160 µM (inactive)
CC(c1ccc(Cl)cc1)n1c(S)nnc1-c1ccc2ccccc2n1 (configuration not stated),EC50,[7],4.24 µM (active)
same,AC50,[13],39.8 µM (inconclusive)
same,EC50,[8],> 160 µM (inactive)
Cc1ccccc1NC(=O)CSc1nc(Nc2ccccc2)nc(N2CCOCC2)n1,EC50,[3],> 260 µM (inactive)
